Measurements reported in patent US7345070B2, “Peroxisome proliferator activated receptor agonists” (Eli Lilly and Company, priority 2000, dated 2008).

How the values were obtained:
huPPARγ [1] = target: T1, huPPARγ (Homo sapiens, UniProt P37231); assay: DNA-dependent binding (ABCD binding) using SPA technology, huPPARγ; conditions: SPA displacement of tritium-labeled PPARγ agonist radioligand
T1 sequence (P37231 1-505): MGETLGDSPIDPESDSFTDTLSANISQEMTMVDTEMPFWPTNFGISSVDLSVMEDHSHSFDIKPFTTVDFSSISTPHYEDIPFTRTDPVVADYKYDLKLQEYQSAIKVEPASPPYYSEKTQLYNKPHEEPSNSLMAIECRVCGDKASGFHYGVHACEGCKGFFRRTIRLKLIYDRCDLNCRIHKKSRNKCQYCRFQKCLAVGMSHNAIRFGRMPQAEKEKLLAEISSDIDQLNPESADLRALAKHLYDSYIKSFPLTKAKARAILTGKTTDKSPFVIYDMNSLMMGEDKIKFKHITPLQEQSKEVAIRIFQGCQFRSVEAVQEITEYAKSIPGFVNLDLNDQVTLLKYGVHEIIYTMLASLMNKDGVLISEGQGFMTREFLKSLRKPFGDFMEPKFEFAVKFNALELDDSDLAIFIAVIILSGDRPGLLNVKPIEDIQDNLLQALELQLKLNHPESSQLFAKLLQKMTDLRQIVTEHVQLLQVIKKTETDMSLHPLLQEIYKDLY
T1 sequence (P19793 1-462 partner): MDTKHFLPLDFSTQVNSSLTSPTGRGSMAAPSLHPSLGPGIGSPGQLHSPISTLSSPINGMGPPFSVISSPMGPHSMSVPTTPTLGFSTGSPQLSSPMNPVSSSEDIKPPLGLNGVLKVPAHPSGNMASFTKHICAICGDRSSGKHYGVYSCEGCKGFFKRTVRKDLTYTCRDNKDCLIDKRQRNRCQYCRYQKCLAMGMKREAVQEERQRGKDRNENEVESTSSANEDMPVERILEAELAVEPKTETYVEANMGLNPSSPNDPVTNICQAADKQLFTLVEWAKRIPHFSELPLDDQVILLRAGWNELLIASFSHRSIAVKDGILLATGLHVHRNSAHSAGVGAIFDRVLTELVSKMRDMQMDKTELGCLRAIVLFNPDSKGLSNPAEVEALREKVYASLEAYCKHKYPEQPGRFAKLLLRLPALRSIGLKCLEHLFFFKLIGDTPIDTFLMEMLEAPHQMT
Experimental: (§1) DNA-dependent binding (ABCD binding) was carried out using SPA technology with PPAR receptors. Tritium-labeled PPARα and PPARγ agonists were used as radioligands for generating displacement curves and IC50 values with compounds of the invention. Cotransfection assays were carried out in CV-1 cells. The reporter plasmid contained an acylCoA oxidase (AOX) PPRE and TK promoter upstream of the luciferase reporter cDNA. Appropriate PPARs and RXRα were constitutively expressed using plasmids containing the CMV promoter. […] In order to eliminate such interference, a GAL4 chimeric system was used in which the DNA binding domain of the transfected PPAR was replaced by that of GAL4, and the GAL4 response element was utilized in place of the AOX PPRE. Cotransfection efficacy was determined relative to PPARα agonist and PPARγ agonist reference molecules. Efficacies were determined by computer fit to a concentration-response curve, or in some cases at a single high concentration of agonist (10 μM). For binding or cotransfection studies with receptors other than PPARs, similar assays were carried out using appropriate ligands, receptors, reporter constructs, etc., for that particular receptor.
(§2) These studies were carried out to evaluate the ability of compounds of the invention to bind to and/or activate various nuclear transcription factors, particularly huPPARα (“hu” indicates “human”) and huPPARγ. These studies provide in vitro data concerning efficacy and selectivity of compounds of the invention. Furthermore, binding and cotransfection data for compounds of the invention were compared with corresponding data for marketed compounds that act on either huPPARα or huPPARγ.

huPPARα [2] = assay: Cotransfection assay in CV-1 cells, huPPARα; format: cell-based, human; conditions: GAL4 chimeric system, relative to PPARα agonist reference molecule
Experimental: as §1, §2

huPPARγ [3] = target: T1, huPPARγ; assay: Cotransfection assay in CV-1 cells, huPPARγ; format: cell-based; design: Appropriate PPARs and RXRα were constitutively expressed using plasmids containing the CMV promoter; expressed in transfected cells; host or cells: CV-1 cells; conditions: AOX PPRE luciferase reporter, relative to PPARγ agonist reference molecule, read-out: huPPARγ CTF Efficacy
Experimental: as §1, §2

huPPARα [4] = target: T2, huPPARα (Homo sapiens, UniProt Q07869); assay: DNA-dependent binding (ABCD binding) using SPA technology, huPPARα; conditions: SPA displacement of tritium-labeled PPARα agonist radioligand
T2 sequence (Q07869 1-468): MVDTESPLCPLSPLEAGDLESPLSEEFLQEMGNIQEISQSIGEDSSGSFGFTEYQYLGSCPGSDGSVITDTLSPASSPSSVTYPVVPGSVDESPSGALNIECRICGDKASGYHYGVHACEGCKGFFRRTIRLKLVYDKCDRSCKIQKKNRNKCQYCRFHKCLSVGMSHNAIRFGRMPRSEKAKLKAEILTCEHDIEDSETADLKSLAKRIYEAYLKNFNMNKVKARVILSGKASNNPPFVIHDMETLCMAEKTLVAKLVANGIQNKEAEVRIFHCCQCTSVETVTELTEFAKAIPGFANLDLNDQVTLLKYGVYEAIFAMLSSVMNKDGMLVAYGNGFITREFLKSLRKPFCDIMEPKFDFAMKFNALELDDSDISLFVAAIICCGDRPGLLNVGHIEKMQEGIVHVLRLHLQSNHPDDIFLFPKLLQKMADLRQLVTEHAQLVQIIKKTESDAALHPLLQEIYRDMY
T2 sequence (P19793 1-462 partner): T1 sequence (P19793 1-462 partner)
Experimental: as §1, §2

Row | IC50 (huPPARγ [1]) [µM] | Emax (huPPARγ [3]) [%] | IC50 (huPPARα [4]) [µM] | Compound | huPPARα CTF Efficacy (huPPARα [2]) [%]
1 | 0.024 | 75 | 0.063 | Cc1oc(-c2cccc(Br)c2)nc1CCOc1ccc(CC(C)(Oc2ccccc2)C(=O)O)cc1 (centres unmarked) [Example 8, 3-(4-{2-[2-(3-Bromophenyl)-5-methyloxazol-4-yl]ethoxy}phenyl)-2-methyl-2-phenoxypropionic acid] | 54
2 | 0.011 | 73 | 0.041 | Cc1oc(C2(C)CCCCC2)nc1CCOc1ccc(CC(C)(Oc2ccccc2)C(=O)O)cc1 (centres unmarked) [Example 9, 2-Methyl-3-(4-{2-[5-methyl-2-(1-methylcyclohexyl)oxazol-4-yl]ethoxy}phenyl)-2-phenoxypropionic acid] | 61
3 | 0.067 | 105 | 0.068 | Cc1oc(-c2cccs2)nc1CCOc1ccc(CC(C)(Oc2ccc(C(C)(C)C)cc2)C(=O)O)cc1 (centres unmarked) [Example 17, 2-Methyl-3-{4-[2-(5-methyl-2-thiophen-2-yl-oxazol-4-yl)-ethoxy]-phenyl}-2-(4-tert-butylphenoxy)-propionic acid] | 129
4 | 0.06 | 112 | 0.072 | Cc1oc(C2CCCCC2)nc1CCOc1ccc(CC(C)(Oc2ccc(C(C)(C)C)cc2)C(=O)O)cc1 (centres unmarked) [Example 18, 2-Methyl-3-(4-{2-[5-methyl-2-cyclohexylyl-oxazol-4-yl]-ethoxy}-phenyl)-2-(4-tert-butylphenoxy)-propionic acid] | 102
5 | 0.08 | 23 | 0.085 | COc1ccc(OC(C)(Cc2ccc(OCCc3nc(-c4cccs4)oc3C)cc2)C(=O)O)cc1 (centres unmarked) [Example 19, 2-Methyl-3-{4-[2-(5-methyl-2-thiophen-2-yl-oxazol-4-yl)-ethoxy]-phenyl}-2-(4-methoxyphenoxy)-propionic acid] | 64
6 | 0.085 | 12 | 0.07 | Cc1oc(-c2cccs2)nc1CCOc1ccc(CC(C)(Oc2cccc(F)c2)C(=O)O)cc1 (centres unmarked) [Example 22, 2-(3-Fluoro-phenoxy)-2-methyl-3-{4-[2-(5-methyl-2-thiophen-2-yl-oxazol-4-yl)-ethoxy]-phenyl}-propionic acid] | 51
7 | 0.081 | 17 | 0.063 | Cc1oc(C2CCCCC2)nc1CCOc1ccc(CC(C)(Oc2cccc(F)c2)C(=O)O)cc1 (centres unmarked) [Example 23, 2-(3-Fluoro-phenoxy)-2-methyl-3-{4-[2-(5-methyl-2-cyclohexyl-oxazol-4-yl)-ethoxy]-phenyl}-propionic acid] | 40
8 | 0.07 | 106 | 0.073 | Cc1oc(-c2cccs2)nc1CCOc1ccc(CC(C)(Oc2cccc(C(C)(C)C)c2)C(=O)O)cc1 (centres unmarked) [Example 25, 2-(3-tert-Butyl-phenoxy)-2-methyl-3-{4-[2-(5-methyl-2-thiophen-2-yl-oxazol-4-yl)-ethoxy]-phenyl}-propionic acid] | 95
9 | 0.076 | 15 | 0.075 | Cc1oc(-c2cccs2)nc1CCOc1ccc(CC(C)(Oc2ccccc2F)C(=O)O)cc1 (centres unmarked) [Example 27, 2-(2-Fluoro-phenoxy)-2-methyl-3-{4-[2-(5-methyl-2-thiophen-2-yl-oxazol-4-yl)-ethoxy]-phenyl}-propionic acid] | 46
10 | 0.048 | 82 | 0.116 | Cc1oc(-c2ccccc2)nc1CCOc1ccc(CC(C)(Oc2ccc(Cl)cc2)C(=O)O)cc1 (centres unmarked) [Example 29, 2-(4-Chloro-phenoxy)-2-methyl-3-{4-[2-(5-methyl-2-phenyl-oxazol-4-yl)-ethoxy]-phenyl}-propionic acid] | 65
11 | 0.077 | 76 | 0.091 | Cc1oc(C2CCCCC2)nc1CCOc1ccc(CC(C)(Oc2ccc(C3CCCCC3)cc2)C(=O)O)cc1 (centres unmarked) [Example 34, 3-{4-[2-(2-Cyclohexyl-5-methyl-oxazol-4-yl)-ethoxy]-phenyl}-2-(4-cyclohexyl-phenoxy)-2-methyl-propionic acid] | 112
12 | 0.079 | 21 | 0.066 | Cc1ccc(OC(C)(Cc2ccc(OCCc3nc(C4CCCCC4)oc3C)cc2)C(=O)O)cc1C (centres unmarked) [Example 35, 3-{4-[2-(2-Cyclohexyl-5-methyl-oxazol-4-yl)-ethoxy]-phenyl}-2-(3,4-dimethyl-phenoxy)-2-methyl-propionic acid] | 78
13 | 0.088 | 21 | 0.072 | Cc1ccc(OC(C)(Cc2ccc(OCCc3nc(-c4cccs4)oc3C)cc2)C(=O)O)cc1C (centres unmarked) [Example 36, 2-(3,4-Dimethyl-phenoxy)-2-methyl-3-{4-[2-(5-methyl-2-thiophen-2-yl-oxazol-4-yl)-ethoxy]-phenyl}-propionic acid] | 70
14 | 0.01 | 110 | 0.05 | Cc1ccc(OC(C)(Cc2ccc(OCCc3nc(-c4cccs4)oc3C)cc2)C(=O)O)cc1 (centres unmarked) [Example 40, 2-Methyl-3-{4-[2-(5-methyl-2-thiophen-2-yl-oxazol-4-yl)-ethoxy]-phenyl}-2-p-tolyloxy-propionic acid] | 77
15 | 0.109 | 11 | 0.066 | Cc1ccc(OC(C)(Cc2ccc(OCCc3nc(C4CCCCC4)oc3C)cc2)C(=O)O)cc1 (centres unmarked) [Example 41, 3-{4-[2-(2-Cyclohexyl-5-methyl-oxazol-4-yl)-ethoxy]-phenyl}-2-methyl-2-p-tolyloxy-propionic acid] | 49
16 | 0.159 | 73 | 0.157 | Cc1oc(C2CCCCC2)nc1CCOc1ccc(CC(C)(Oc2ccc(OC(F)(F)F)cc2)C(=O)O)cc1 (centres unmarked) [Example 44, 3-{4-[2-(2-Cyclohexyl-5-methyl-oxazol-4-yl)-ethoxy]-phenyl}-2-methyl-2-(4-trifluoromethoxy-phenoxy)-propionic acid] | 54
17 | 0.08 | 48 | 0.064 | Cc1oc(-c2cccs2)nc1CCOc1ccc(CC(C)(Oc2ccc(C(F)(F)F)cc2)C(=O)O)cc1 (centres unmarked) [Example 51, 2-Methyl-3-{4-[2-(5-methyl-2-thiophen-2-yl-oxazol-4-yl)-ethoxy]-phenyl}-2-(4-trifluoromethyl-phenoxy)-propionic acid] | 152
